Reference: patent publication US20260053716A1, “COMPOSITION FOR DENTIN ADHESION AND COMPOSITION FOR PULP RESTORATION, EACH COMPOSITION CONTAINING CPNE7-DERIVED PEPTIDE” (HYSENSBIO CO., LTD, priority 2022, published 2026)
Ends that are not written are not given here.

Experiment: Observation of dentinal tubule permeability by confocal microscopy
Assay type: in vitro ADME
Details: rhodamine-attached KH001 in ABU, applied about 30 seconds to coronal surface of extracted human tooth
Excerpt: The composition for dentin adhesion prepared according to Example 2-1-1 of the present invention was applied to extracted human teeth to observe dentinal tubule permeability. The extracted human teeth were impacted human third molars from patients aged 18 to 22, provided by the Seoul National University Dental Hospital. The experimental protocol was approved by the Institutional Review Board (IRB; IRB Number: S-D20140007), and prior consent was obtained from all patients.
The crown of the extracted human tooth was transversely cut using a diamond saw to expose the dentinal tubule, and then the exposed human tooth was treated. A composition for dentin adhesion prepared according to Example 2-1-1 containing the KH001 peptide (SEQ ID NO: 96), to which rhodamine was attached as a fluorescent dye, was applied to the coronal surface of the extracted human tooth.
The composition for dentin adhesion was applied without a brushing process or an air-drying process and left for about 30 seconds for photopolymerization, and then confocal images were taken.

KYKQKRRSYK [KH001, KYKQKRRSYK]
dentinal tubule permeability (whether KH001 reached the pulp): flowed well into the pulp cavity along the dentinal tubule
